# Literature values, collected in patent US20220259114A1, “Microbe-Based Compositions for Restoring Soil Health and Controlling Pests” (Locus Agriculture IP Company, LLC, priority 2019, published 2022).
# *1 amine or outer side, *2 acyl side, *3 side chain or, on linkers, in order; H or OH if unused. Where a SMILES comes first, the peptide text is derived from it. Bridges are numbered along the chain shown (N, C = ends). [ ]: non-standard residue; d: D form. X1 = CC(C)CCCCCCCCC[C@H](CC(=O)[*:1])O[*:2]
# Columns and labels:
# [1] = reduced from 72 mN/m; concentration as low as 0.005%
# [2] = system: plant pathogens including bacteria, fungi, viruses and nematodes; conditions: in most cases does not exceed
# [3] = stated 'in one embodiment'; species and route not given
surface tension of water after reduction [1],Compound,"effective SLP concentration for biopesticide activity, in most cases [2]",toxic dose [3]
27 mN/m,"CC(C)CCCCCCCCC[C@@H]1CC(=O)N[C@@H](CCC(=O)O)C(=O)N[C@@H](CC(C)C)C(=O)N[C@H](CC(C)C)C(=O)N[C@@H](C(C)C)C(=O)N[C@@H](CC(=O)O)C(=O)N[C@H](CC(C)C)C(=O)N[C@@H](CC(C)C)C(=O)O1 [Surfactin, surfactin] (EL[dL]VD[dL]L; linker N-C via X1)",–,–
–,sophorolipid [SLP],≤ 3 mg/L,> 375 mg/kg of body weight
